Laboratory results from patent US20110105430A1, “PYRROLO [2,3-C] PYRIDINE DERIVATIVES AS P38 KINEASE INHIBITING AGENTS” (priority 2008, published 2011).

Tests used:
[1] = target: T1, p38α (Homo sapiens, UniProt Q16539); assay: p38 kinase assay, p38-α with peptide substrate (Caliper LabChip); format: biochemical
T1 construct: purchased Millipore
Procedure: Alternatively, p38 kinase assays were performed in a reaction volume of 70 μL in a 384-well plate, at 30° for […] under the following conditions: 50 mM Hepes, pH 7.4, 10 mM MgCl2, 1 mg/ml FA Free BSA, 1 mM DTT, 10 μM ATP, 10 μM p38 peptide [Caliper Life Sciences FL-Peptide 8 (5-FAM-IPTSPITTTYFFFKKK-COOH)] and 5.7 nM p38-α (Millipore), or 14.3 nM unactivated MAPKAP kinase-2, 0.18 nM p38-α (Millipore) and 2 uM RSK peptide [Caliper Life Sciences FL-Peptide 11 (5-FAM-KKLNRTLSVA-COOH)]. Serial dilutions of compounds were added to each reaction in 700 nL DMSO. 700 nL of DMSO was added to the control wells of the reaction plate as the no inhibitor control for each inhibitor titration. The reaction was terminated by the addition of 15 μL of a 100 mM EDTA. Product formation was analyzed using the Caliper LabChip 3000. The Separation buffer contained 100 mM HEPES pH 7.5, 0.015% Brij-35, 2.5% Coating Reagent #3 (Caliper Life Sciences) and 10 mM EDTA. Calculation of the substrate product ratios are performed using the HTS Well Analyzer software provided by Caliper Life Sciences and the percent inhibition at each compound concentration is determined.

[2] = test system: TNF-α; assay: IC50 hWB (TNF-α release assay); format: cell-based; conditions: Homo sapiens
Procedure: Blood was obtained from healthy volunteers by venipuncture using sodium heparin as an anti-coagulant. Peripheral blood mononuclear cells (PBMCs) were isolated using Lymphocyte Separation Medium (ICN) according to manufacturers specifications. Isolated PBMCs were washed 3 times with FIBSS and diluted to a density of 2×10^6 cells/mL in RPMI+5% autologous human serum. 50 μL of the serial dilutions of inhibitor were added to wells of a 96-well tissue culture plate followed by addition of 100 μL of PBMCs and then 50 μL of RPMI complete medium containing 400 ng/mL LPS. A control well of cells without compound but with LPS (maximal stimulation control) and one without compound and without LPS (background control) were included in each titration. The cells were incubated for 16 hours in a humidified incubator at 37° C., 5% CO2. Supernatants were then harvested and TNF-α levels were quantified by immunoassay using commercial reagents (R&D, Inc).

T1 sequence (Q16539 whole entry): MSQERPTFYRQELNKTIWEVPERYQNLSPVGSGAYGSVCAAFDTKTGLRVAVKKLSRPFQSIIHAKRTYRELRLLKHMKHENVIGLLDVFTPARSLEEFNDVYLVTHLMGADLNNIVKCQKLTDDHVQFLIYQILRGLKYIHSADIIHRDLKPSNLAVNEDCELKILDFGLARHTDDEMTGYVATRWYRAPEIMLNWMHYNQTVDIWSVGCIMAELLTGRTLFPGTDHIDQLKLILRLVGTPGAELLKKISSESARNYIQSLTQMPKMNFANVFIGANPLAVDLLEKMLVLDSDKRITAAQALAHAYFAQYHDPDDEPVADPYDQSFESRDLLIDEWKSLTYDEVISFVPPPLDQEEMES

Row | SMILES | IC50 [1] [nM] | IC50 [2] [nM]
1 | O=C(c1c(F)cc(F)cc1F)c1c[nH]c2c(=O)n(Cc3nc4ccccc4[nH]3)ccc12 [Example 1, 6-(1H-benzimidazol-2-ylmethyl)-3-(2,4,6-trifluorobenzoyl)-1,6-dihydro-7H-pyrrolo[2,3-c]pyridin-7-one] | 45 | 461
2 | O=C(c1c(F)cc(F)cc1F)c1c[nH]c2c(=O)n(Cc3nc4cccc(F)c4[nH]3)ccc12 [Example 2, 6-[(4-fluoro-1H-benzimidazol-2-yl)methyl]-3-(2,4,6-trifluorobenzoyl)-1,6-dihydro-7H-pyrrolo[2,3-c]pyridin-7-one] | 27 | 128
3 | O=C(c1c(F)cc(F)cc1F)c1c[nH]c2c(=O)n(Cc3nc4ccc(F)c(F)c4[nH]3)ccc12 [Example 3, 6-[(4,5-difluoro-1H-benzimidazol-2-yl)methyl]-3-(2,4,6-trifluorobenzoyl)-1,6-dihydro-7H-pyrrolo[2,3-c]pyridin-7-one] | 23 | 128
4 | O=C(c1c(F)cc(F)cc1F)c1c[nH]c2c(=O)n(Cc3cn4cccnc4n3)ccc12 [Example 5, 6-(imidazo[1,2-a]pyrimidin-2-ylmethyl)-3-(2,4,6-trifluorobenzoyl)-1,6-dihydro-7H-pyrrolo[2,3-c]pyridin-7-one] | 5.3 | 88
5 | O=C(c1c(F)cc(F)cc1F)c1c[nH]c2c(=O)n(Cc3nc4cccnc4[nH]3)ccc12 [Example 6, 6-(3H-imidazo[4,5-b]pyridin-2-ylmethyl)-3-(2,4,6-trifluorobenzoyl)-1,6-dihydro-7H-pyrrolo[2,3-c]pyridin-7-one] | 18 | 84
6 | O=C(c1c(F)cccc1F)c1c[nH]c2c(=O)n(Cc3nc4cccnc4[nH]3)ccc12 [Example 7, 3-(2,6-difluorobenzoyl)-6-(3H-imidazo[4,5-b]pyridin-2-ylmethyl)-1,6-dihydro-7H-pyrrolo[2,3-c]pyridin-7-one] | 38 | 248
7 | O=C(c1c(F)cc(F)cc1F)c1c[nH]c2c(=O)n(Cc3nc4ncc(Br)cc4[nH]3)ccc12 [Example 8, 6-[(6-bromo-3H-imidazo[4,5-b]pyridin-2-yl)methyl]-3-(2,4,6-trifluorobenzoyl)-1,6-dihydro-7H-pyrrolo[2,3-c]pyridin-7-one] | 24 | 253
8 | Cc1ccc2nc(Cn3ccc4c(C(=O)c5c(F)cccc5F)c[nH]c4c3=O)cn2n1 [Example 9, 3-(2,6-difluorobenzoyl)-6-[(6-methylimidazo[1,2-b]pyridazin-2-yl)methyl]-1,6-dihydro-7H-pyrrolo[2,3-c]pyridin-7-one] | 16 | 217
9 | O=C(c1c(F)cc(F)cc1F)c1c[nH]c2c(=O)n(Cc3nc4ccccc4o3)ccc12 [Example 10, 6-(1,3-benzoxazol-2-ylmethyl)-3-(2,4,6-trifluorobenzoyl)-1,6-dihydro-7H-pyrrolo[2,3-c]pyridin-7-one] | 40 | 1370
10 | Cc1cnc2nc(Cn3ccc4c(C(=O)c5c(F)cc(F)cc5F)c[nH]c4c3=O)[nH]c2c1 [Example 11, 6-[(6-methyl-3H-imidazo[4,5-b]pyridin-2-yl)methyl]-3-(2,4,6-trifluorobenzoyl)-1,6-dihydro-7 H-pyrrolo[2,3-c]pyridin-7-one] | 14 | 39
11 | Cc1cnc2nc(Cn3ccc4c(C(=O)c5c(F)cccc5F)c[nH]c4c3=O)[nH]c2c1 [Example 12, 3-(2,6-difluorobenzoyl)-6-[(6-methyl-3H-imidazo[4,5-b]pyridin-2-yl)methyl]-1,6-dihydro-7H-pyrrolo[2,3-c]pyridin-7-one] | 25 | 142
12 | O=C(c1c(F)cncc1F)c1c[nH]c2c(=O)n(Cc3cc4ccccn4n3)ccc12 [Example 13, 3-(3,5-difluoroisonicotinoyl)-6-(pyrazolo[1,5-c]pyridin-2-ylmethyl)-1,6-dihydro-7H-pyrrolo[2,3-c]pyridin-7-one] | 29 | 1520
13 | Cc1cc(F)c(C(=O)c2c[nH]c3c(=O)n(Cc4cc5ccccn5n4)ccc23)c(F)c1 [Example 14, 3-(2,6-difluoro-4-methylbenzoyl)-6-(pyrazolo[1,5-a]pyridin-2-ylmethyl)-1,6-dihydro-7H-pyrrolo[2,3-c]pyridin-7-one] | 22 | 486
14 | O=C(NCC(F)(F)F)c1cnc2nc(Cn3ccc4c(C(=O)c5c(F)cc(F)cc5F)c[nH]c4c3=O)[nH]c2c1 [Example 15, 2-{[7-oxo-3-(2,4,6-trifluorobenzoyl)-1,7-dihydro-6H-pyrrolo[2,3-c]pyridin-6-yl]methyl}-N-(2,2,2-trifluoroethyl)-3H-imidazo[4,5-b]pyridine-6-carboxamide] | 8.6 | 103
15 | O=C(c1c(F)cc(F)cc1F)c1c[nH]c2c(=O)n(Cc3nc4ncc(C(=O)N5CCOCC5)cc4[nH]3)ccc12 [Example 16, 6-{[6-(morpholin-4-ylcarbonyl)-1H-imidazo[4,5-b]pyridin-2-yl]methyl}-3-(2,4,6-trifluorobenzoyl)-1,6-dihydro-7H-pyrrolo[2,3-c]pyridin-7-one] | 19 | 217
16 | O=C(c1c(F)cc(F)cc1F)c1c[nH]c2c(=O)n(Cc3nc4ccncc4[nH]3)ccc12 [Example 17, 6-(3H-imidazo[4,5-c]pyridin-2-ylmethyl)-3-(2,4,6-trifluorobenzoyl)-1,6-dihydro-7H-pyrrolo[2,3-c]pyridin-7-one] | 13 | 
17 | O=C(c1c(F)cc(F)cc1F)c1c[nH]c2c(=O)n(Cc3cn4ccc(C(F)(F)F)cc4n3)ccc12 [Example 18, 3-(2,4,6-trifluorobenzoyl)-6-{[(7-trifluoromethyl)imidazo[1,2-c]pyridin-2-yl]methyl}-1,6-dihydro-7H-pyrrolo[2,3-c]pyridin-7-one] | 12 | 201
18 | NC(=O)c1ccn2cc(Cn3ccc4c(C(=O)c5c(F)cc(F)cc5F)c[nH]c4c3=O)nc2c1 [Example 22, 2-{[7-oxo-3-(2,4,6-trifluorobenzoyl)-1,7-dihydro-6H-pyrrolo[2,3-c]pyridin-6-yl]methyl}imidazo[1,2-a]pyridine-7-carboxamide] | 1.3 | 
19 | O=C(O)c1ccn2cc(Cn3ccc4c(C(=O)c5c(F)cc(F)cc5F)c[nH]c4c3=O)nc2c1 [Example 23, 2-{[7-oxo-3-(2,4,6-trifluorobenzoyl)-1,7-dihydro-6H-pyrrolo[2,3-c]pyridin-6-yl]methyl}imidazo[1,2-a]pyridine-7-carboxylic acid] | 2 | 
20 | CNC(=O)c1ccn2cc(Cn3ccc4c(C(=O)c5c(F)cc(F)cc5F)c[nH]c4c3=O)nc2c1 [Example 25, N-methyl-2-{[7-oxo-3-(2,4,6-trifluorobenzoyl)-1,7-dihydro-6H-pyrrolo-[2,3-c]pyridin-6-yl]methyl}-imidazo[1,2-c]pyridine-7-carboxamide] | 1 | 
21 | CNC(=O)c1ccc2nc(Cn3ccc4c(C(=O)c5c(F)cc(F)cc5F)c[nH]c4c3=O)[nH]c2c1 [Example 27, N-methyl-2-{[7-oxo-3-(2,4,6-trifluorobenzoyl)-1,7-dihydro-6H-pyrrolo[2,3-c]pyridin-6-yl]methyl}-1H-benzimidazole-5-carboxamide] | 3 | 
22 | O=c1c2[nH]cc(C(O)c3ccc(F)cc3F)c2ccn1Cc1cn2ccccc2n1 (centres unmarked) [Example 28, 3-[(2,4-difluorophenyl)(hydroxy)methyl]-6-(imidazo[1,2-a]pyridin-2-ylmethyl)-1,6-dihydro-7H-pyrrolo[2,3-c]pyridin-7-one] | 249 | 
